Measurements reported in paper PMC9851200, “Multiparameter phenotypic screening for endogenous TFEB and TFE3 translocation identifies novel chemical series modulating lysosome function” (Autophagy, 2022).
Where two headings read alike, the source gives them in different places.

Columns and labels:
Conditions in all cases: PKIS2 primary screening
[1] = system: endogenous TFE3; experiment: TFE3 nuclear translocation, immunocytochemistry high-content imaging; type: cell-based
[2] = system: SH-SY5Y cells; experiment: AK (adenylate kinase) release ToxiLight cytotoxicity assay; note: reference of the scale not given here
[3] = system: endogenous TFEB; experiment: TFEB nuclear translocation, immunocytochemistry high-content imaging; type: cell-based
[4] = system: SH-SY5Y cells; note: reference of the scale not given here
[5] = system: SH-SY5Y cells; experiment: Nuclear count from microscopy images (cellular growth and toxicity); note: reference of the scale not given here

## NC(=O)c1cc(-c2ccccc2)cc2c(C3CCNCC3)c[nH]c12 [UNC10225015A]
[1]
  TFE3 %: 15.20%
[2]
  AK: 102.13
[3]
  TFEB %: 3.89%
[4]
  DQ Intensity: 84.06
  DQ Spot: 101.36
[5]
  Nuclear Count: 93.78

## Cc1ccc(NC(=O)Nc2cccc(Cl)c2)cc1-c1ccc(C(=O)Nc2ccncc2)cc1 [UNC10225019A]
[1]
  TFE3 %: 11.19%
[2]
  AK: 95.29
[3]
  TFEB %: 7.29%
[4]
  DQ Intensity: 128.25
  DQ Spot: 121.60
[5]
  Nuclear Count: 106.82

## c1ccc(-c2cnc3nccnn23)cc1 [UNC10225020A]
[1]
  TFE3 %: 11.36%
[2]
  AK: 125.59
[3]
  TFEB %: 8.54%
[4]
  DQ Intensity: 109.95
  DQ Spot: 119.05
[5]
  Nuclear Count: 110.84

## Cc1ccc(NC(=O)c2cccc(N3CCCCC3)c2)cc1-c1ccc(C(=O)NCC2CC2)cc1 [UNC10225021A]
[1]
  TFE3 %: 7.57%
[2]
  AK: 68.90
[3]
  TFEB %: 6.38%
[4]
  DQ Intensity: 102.66
  DQ Spot: 94.61
[5]
  Nuclear Count: 118.95

## NCCNS(=O)(=O)c1ccc(-c2ccnc3[nH]ccc23)cc1 [UNC10225023A]
[1]
  TFE3 %: 9.07%
[2]
  AK: 82.12
[3]
  TFEB %: 3.25%
[4]; DQ Red BSA intensity
  DQ Intensity: 104.54
[4]; DQ Red BSA spot count
  DQ Spot: 94.72
[5]
  Nuclear Count: 129.56

## NCCNS(=O)(=O)c1ccc(-c2ccnc3[nH]ccc23)cc1 [UNC10225023B]
[1]
  TFE3 %: 14.03%
[2]
  AK: 72.23
[3]
  TFEB %: 3.92%
[4]; DQ Red BSA intensity
  DQ Intensity: 110.40
[4]; DQ Red BSA spot count
  DQ Spot: 102.49
[5]
  Nuclear Count: 135.88

## O=c1cc(N2CCOCC2)nc2n(Cc3cccc(C(F)(F)F)c3)ccn12 [UNC10225024A]
[1]
  TFE3 %: 12.11%
[2]
  AK: 84.29
[3]
  TFEB %: 3.55%
[4]
  DQ Intensity: 73.22
  DQ Spot: 100.00
[5]
  Nuclear Count: 98.56

## COc1cccc(-c2nc(-c3ccccc3)[nH]c2-c2ccncc2)c1 [UNC10225025A]
[1]
  TFE3 %: 10.01%
[2]
  AK: 113.94
[3]
  TFEB %: 4.20%
[4]; DQ Red BSA intensity
  DQ Intensity: 97.17
[4]; DQ Red BSA spot count
  DQ Spot: 101.78
[5]
  Nuclear Count: 132.30

## Cc1cccc(Nc2nc(NCCN)ncc2C(N)=O)c1 [UNC10225029A]
[1]
  TFE3 %: 9.09%
[2]
  AK: 118.19
[3]
  TFEB %: 4.35%
[4]
  DQ Intensity: 100.58
  DQ Spot: 100.70
[5]
  Nuclear Count: 111.31

## CNc1nccc(-c2c(-c3ccc(F)cc3)ncn2CCCN2CCOCC2)n1 [UNC10225031A]
[1]
  TFE3 %: 11.89%
[2]
  AK: 73.64
[3]
  TFEB %: 8.16%
[4]
  DQ Intensity: 87.71
  DQ Spot: 104.14
[5]
  Nuclear Count: 102.35

## Cn1cncc1-c1cc2c(Nc3ccc(OCc4ccccc4)cc3)ncnc2cn1 [UNC10225035A]
[1]
  TFE3 %: 18.86%
[2]
  AK: 76.24
[3]
  TFEB %: 6.44%
[4]; DQ Red BSA intensity
  DQ Intensity: 110.55
[4]; DQ Red BSA spot count
  DQ Spot: 106.44
[5]
  Nuclear Count: 109.40

## Cc1ccc(NC(=O)c2ccnc(N3CCCCC3)c2)cc1-c1ccc(C(=O)NCC2CC2)cc1 [UNC10225036A]
[1]
  TFE3 %: 6.82%
[2]
  AK: 94.08
[3]
  TFEB %: 5.85%
[4]
  DQ Intensity: 84.91
  DQ Spot: 99.52
[5]
  Nuclear Count: 108.51

## Cn1cc(-c2ccc3c(c2)CCN3C(=O)Cc2cccc(Cl)c2)c2c(N)ncnc21 [UNC10225039A]
[1]
  TFE3 %: 17.54%
[2]
  AK: 96.09
[3]
  TFEB %: 7.96%
[4]
  DQ Intensity: 87.65
  DQ Spot: 95.36
[5]
  Nuclear Count: 137.18

## COc1ccc(NC(=O)c2ccoc2)cc1-c1ccc(C(=O)NCC2CC2)cc1 [UNC10225046A]
[1]
  TFE3 %: 9.04%
[2]
  AK: 86.14
[3]
  TFEB %: 6.55%
[4]
  DQ Intensity: 103.40
  DQ Spot: 103.73
[5]
  Nuclear Count: 104.87

## CCn1c(-c2nonc2N)nc2c(-c3ccccc3)ncc(OCCCN)c21.O=C(O)C(F)(F)F.O=C(O)C(F)(F)F [UNC10225047A]
[1]
  TFE3 %: 79.68%
[2]
  AK: 103.12
[3]
  TFEB %: 27.76%
[4]
  DQ Intensity: 51.60
  DQ Spot: 50.36
[5]
  Nuclear Count: 137.54

## Clc1ccc(-c2cc(-c3c[nH]nc3-c3ccccn3)ccn2)cc1 [UNC10225057A]
[1]
  TFE3 %: 9.30%
[2]
  AK: 69.86
[3]
  TFEB %: 5.33%
[4]; DQ Red BSA intensity
  DQ Intensity: 80.85
[4]; DQ Red BSA spot count
  DQ Spot: 100.06
[5]
  Nuclear Count: 99.07

## Nc1nccc(-c2c(-c3ccc(F)cc3)ncn2C2CCN(Cc3ccccc3)CC2)n1 [UNC10225058A]
[1]
  TFE3 %: 7.38%
[2]
  AK: 75.20
[3]
  TFEB %: 3.25%
[4]
  DQ Intensity: 142.65
  DQ Spot: 129.81
[5]
  Nuclear Count: 98.98

## COc1cc2ncn(-c3cc(OCc4ccncc4)c(C(N)=O)s3)c2cc1OC [UNC10225069A]
[1]
  TFE3 %: 7.35%
[2]
  AK: 99.11
[3]
  TFEB %: 3.88%
[4]
  DQ Intensity: 66.90
  DQ Spot: 87.03
[5]
  Nuclear Count: 104.39

## Cn1cc(-c2ccc3c(c2)CCN3C(=O)Cc2cc(F)cc(F)c2F)c2c(N)ncnc21 [UNC10225071A]
[1]
  TFE3 %: 19.64%
[2]
  AK: 97.57
[3]
  TFEB %: 5.81%
[4]
  DQ Intensity: 128.82
  DQ Spot: 133.47
[5]
  Nuclear Count: 91.42

## N#Cc1ccc(-c2cc(-c3c[nH]nc3-c3ccccn3)ccn2)cc1 [UNC10225072A]
[1]
  TFE3 %: 14.52%
[2]
  AK: 65.14
[3]
  TFEB %: 2.62%
[4]; DQ Red BSA intensity
  DQ Intensity: 58.59
[4]; DQ Red BSA spot count
  DQ Spot: 75.50
[5]
  Nuclear Count: 116.96

## Fc1ccc(Nc2nccc(-c3c(-c4ccc(Cl)cc4)nn4ncccc34)n2)cc1F [UNC10225073A]
[1]
  TFE3 %: 12.07%
[2]
  AK: 84.83
[3]
  TFEB %: 10.16%
[4]
  DQ Intensity: 129.98
  DQ Spot: 108.87
[5]
  Nuclear Count: 119.55

## Cc1ccc(F)c(C(=O)Nc2cccc(-c3nn4ccccc4c3-c3ccnc(Nc4cccc(F)c4)n3)c2)c1F [UNC10225076A]
[1]
  TFE3 %: 6.05%
[2]
  AK: 111.27
[3]
  TFEB %: 2.83%
[4]
  DQ Intensity: 103.33
  DQ Spot: 125.97
[5]
  Nuclear Count: 118.77

## O=C(Nc1cccc(-c2nn3ccccc3c2-c2ccnc(Nc3cccc(F)c3)n2)c1)c1c(F)ccc(F)c1Cl [UNC10225081A]
[1]
  TFE3 %: 13.17%
[2]
  AK: 69.78
[3]
  TFEB %: 11.80%
[4]
  DQ Intensity: 135.52
  DQ Spot: 127.57
[5]
  Nuclear Count: 54.18

## COc1cc(Nc2ncc3c(C)nc(-c4cc5ccccc5[nH]4)n3n2)cc(OC)c1OC [UNC10225084A]
[1]
  TFE3 %: 14.67%
[2]
  AK: 112.96
[3]
  TFEB %: 3.01%
[4]
  DQ Intensity: 112.41
  DQ Spot: 111.83
[5]
  Nuclear Count: 82.05

## Cl.c1ccc(Cn2ncc3cc(Nc4ncnc5ccccc45)ccc32)cc1 [UNC10225085A]
[1]
  TFE3 %: 11.00%
[2]
  AK: 124.83
[3]
  TFEB %: 4.60%
[4]; DQ Red BSA intensity
  DQ Intensity: 91.33
[4]; DQ Red BSA spot count
  DQ Spot: 107.62
[5]
  Nuclear Count: 82.39

## CC(C)c1nc(-c2ccc(F)c(NS(=O)(=O)c3c(F)cccc3F)c2)c(-c2ccnc(Nc3ccc(N4CCOCC4)nc3)n2)s1 [UNC10225089A]
[1]
  TFE3 %: 14.74%
[2]
  AK: 110.72
[3]
  TFEB %: 9.24%
[4]
  DQ Intensity: 67.64
  DQ Spot: 97.60
[5]
  Nuclear Count: 76.92

## CS(=O)(=O)CCNCc1nc(-c2ccc3ncnc(Nc4ccc(OCc5cccc(F)c5)c(Cl)c4)c3c2)cs1.Cl [UNC10225091A]
[1]
  TFE3 %: 9.84%
[2]
  AK: 98.46
[3]
  TFEB %: 5.83%
[4]; DQ Red BSA intensity
  DQ Intensity: 63.39
[4]; DQ Red BSA spot count
  DQ Spot: 82.01
[5]
  Nuclear Count: 114.33

## CCn1c(-c2c(N)noc2C)nc2cnccc21 [UNC10225095A]
[1]
  TFE3 %: 10.37%
[2]
  AK: 112.40
[3]
  TFEB %: 3.05%
[4]
  DQ Intensity: 103.20
  DQ Spot: 105.92
[5]
  Nuclear Count: 110.85

## FC(F)(F)c1ccc(/C=C/c2cncnc2Nc2ccc3[nH]c(Cc4ccccc4)nc3c2)cc1 [UNC10225096A]
[1]
  TFE3 %: 12.52%
[2]
  AK: 102.23
[3]
  TFEB %: 6.39%
[4]; DQ Red BSA intensity
  DQ Intensity: 116.48
[4]; DQ Red BSA spot count
  DQ Spot: 101.82
[5]
  Nuclear Count: 103.45

## Cc1cccc2c(-c3ccncn3)c(-c3ccc(F)cc3)nn12 [UNC10225097A]
[1]
  TFE3 %: 7.36%
[2]
  AK: 80.54
[3]
  TFEB %: 5.54%
[4]
  DQ Intensity: 92.70
  DQ Spot: 100.21
[5]
  Nuclear Count: 79.09

## Cc1c(O)cccc1Nc1ccnc2ccc(C(F)(F)F)cc12.Cl [UNC10225099A]
[1]
  TFE3 %: 5.56%
[2]
  AK: 102.37
[3]
  TFEB %: 9.28%
[4]; DQ Red BSA intensity
  DQ Intensity: 122.68
[4]; DQ Red BSA spot count
  DQ Spot: 95.32
[5]
  Nuclear Count: 127.64

## Fc1cccc(COc2ccc(Nc3ncnc4sc(-c5ccc[nH]5)cc34)cc2Cl)c1 [UNC10225101A]
[1]
  TFE3 %: 15.82%
[2]
  AK: 123.35
[3]
  TFEB %: 8.38%
[4]; DQ Red BSA intensity
  DQ Intensity: 109.09
[4]; DQ Red BSA spot count
  DQ Spot: 86.09
[5]
  Nuclear Count: 106.63

## Nc1ncnc2scc(-c3ccc(NC(=O)Cc4cc(F)ccc4F)cc3)c12.O=C(O)C(F)(F)F [UNC10225107A]
[1]
  TFE3 %: 9.54%
[2]
  AK: 124.57
[3]
  TFEB %: 8.26%
[4]; DQ Red BSA intensity
  DQ Intensity: 106.01
[4]; DQ Red BSA spot count
  DQ Spot: 96.58
[5]
  Nuclear Count: 68.49

## COc1cc(Nc2ccnc3ccc(C(F)(F)F)cc23)cc(OC)c1OC [UNC10225109A]
[1]
  TFE3 %: 7.95%
[2]
  AK: 98.24
[3]
  TFEB %: 5.89%
[4]; DQ Red BSA intensity
  DQ Intensity: 93.31
[4]; DQ Red BSA spot count
  DQ Spot: 111.66
[5]
  Nuclear Count: 107.71

## CCn1c(-c2cccnc2O)nc2cnccc21 [UNC10225114A]
[1]
  TFE3 %: 9.51%
[2]
  AK: 77.22
[3]
  TFEB %: 10.78%
[4]
  DQ Intensity: 101.68
  DQ Spot: 98.93
[5]
  Nuclear Count: 103.96
